Results as given in paper PMC8374649, “IBI362 (LY3305677), a weekly-dose GLP-1 and glucagon receptor dual agonist, in Chinese adults with overweight or obesity: A randomised, placebo-controlled, multiple ascending dose phase 1b study” (EClinicalMedicine, 2021).
Like-named read-outs stand apart in the source and are kept apart here.

Columns and labels:
[1] = Pharmacokinetics, non-compartmental, plasma concentration after subcutaneous dosing; assay type: in vivo; conditions: human; for Cmax / AUC(0-t): n = 8, geometric mean (CV%); for AUC(0-t): read-out: AUC0–168h
Experimental: (§1) Pharmacokinetic parameters were assessed on pre-defined visits in all participants who received IBI362. […] Standard non-compartmental pharmacokinetics methods were used to analyze IBI362 plasma concentration data using Pkanalix 2020R1 (Lixoft, Antony, France). The values for Cmax and Tmax were taken directly from the observed plasma concentration data. The terminal-phase disposition rate constant (λz) was estimated using a log-linear regression of the concentration data in the terminal disposition phase, and T1/2 was estimated as ln(2)/λz. Immunogenicity was assessed by measures of anti-drug antibody-positive responses.
Safety analyses were done in the safety population (defined as all participants who received at least one dose of the study treatment). Pharmacokinetic analyses were done in the pharmacokinetic population (defined as all participants who received at least one dose of IBI362 and had at least one valid plasma concentration assessment). Pharmacodynamic analyses were done in the pharmacodynamic population (defined as all participants who received at least one dose of the study treatment and had baseline and at least one valid assessment). Efficacy analyses were done in the efficacy population (defined as all participants who received at least one dose of the study treatment and had at least one post-baseline assessment).

[2] = test system: Chinese adults with overweight or obesity; assay: Efficacy and pharmacodynamic endpoints, change from baseline to week 12; assay type: in vivo, human; conditions: for Body weight Percent CFB / BMI CFB / Body weight CFB / Diastolic blood pressure CFB / Fasting insulin CFB / Fasting plasma glucose CFB / LDL cholesterol CFB / Systolic blood pressure CFB / Total cholesterol CFB / Triglycerides CFB / Waist circumference CFB / Serum uric acid CFB: MMRM; for HbA1c CFB: ANCOVA, LOCF; for Serum uric acid CFB: post-hoc, baseline to week 12, LS mean (95% CI)
Text: The secondary pharmacodynamic endpoints included changes from baseline (pre-dose on day 0) to week 12 in fasting plasma glucose and fasting insulin levels. The secondary efficacy endpoints included changes from baseline to week 12 in body weight, waist circumference, waist-to-hip ratio, BMI, blood pressure, heart rate, lipids and HbA1c levels. Post-hoc comparison of changes from baseline to week 12 in serum uric acid levels was done between participants receiving IBI362 in each cohort and those receiving placebo. We used mixed effect model for repeated measures (MMRM) for post-baseline repeated measures to analyse continuous efficacy and pharmacodynamic endpoints. The MMRM included the corresponding baseline value, treatment, visit and treatment-by-visit as fixed effects and participant as a random effect. Mean change from baseline or mean percent change from baseline were analysed using a restricted maximum likelihood (REML)-based repeated measures approach in combination with the Newton Raphson Algorithm. The fix effect of visit was fitted as a repeated effect and an unstructured covariance matrix was used. In case of non-converge, matrix like Variance Components and Compound Symmetry will be tested in a subsequent order until model-convergence is achieved. The between-subject degree of freedom was used in estimating fixed effects. No missing data imputation was conducted. Least squares mean estimates of treatment effect at week 12 as well as treatment difference versus placebo alongside with two-sided 95% confidence intervals were provided for key efficacy and pharmacodynamic endpoints. Significance test for body weight was based on least squares means using a two-sided α of 0.05. HbA1c was measured only at baseline and week 12. Least squares mean estimates for HbA1c were computed from an Analysis of Covariance (ANCOVA) model with baseline HbA1c value and treatment as covariates. Last observation carried forward (LOCF) was used for imputing missing post-baseline measure. Least squares mean estimates of treatment effect at week 12 alongside with two-sided 95% confidence intervals were provided. Post-hoc analysis of serum uric acid was performed using MMRM model described above.

[3] = Immunogenicity, anti-drug antibody-positive responses; assay type: in vivo, human
Experimental: as §1

[4] = test system: Gcgr knockout (KO) mice; conditions: cited from earlier work
Text: (§2) IBI362 is a long-acting synthetic peptide analogue of mammalian OXM, with a fatty-acyl moiety to extend the half-life. […] Furthermore, a first-in-human single ascending dose ...

[5] = test system: Glp1r KO mice; conditions: cited from earlier work
Text: as §2

[6] = test system: healthy subjects; conditions: single ascending dose; cited from earlier work
Text: as §2

[7] = test system: human GLP-1 receptors; conditions: in vitro; cited from earlier work
Text: as §2

[8] = test system: human glucagon receptors; conditions: in vitro; cited from earlier work
Text: as §2

[9] = test system: mice; conditions: cited from earlier work
Text: as §2

[10] = test system: mouse GLP-1 receptors; conditions: in vitro; cited from earlier work
Text: as §2

[11] = test system: mouse glucagon receptors; conditions: in vitro; cited from earlier work
Text: as §2

[12] = 1 mg, after first sc dose, 1.0–2.0–3.0 mg regimen
[13] = 1.5 mg, after first sc dose, 1.5–3.0–4.5 mg regimen
[14] = 2 mg, after first sc dose, 2.0–4.0–6.0 mg regimen
[15] = 1.0–2.0–3.0 mg sc once weekly, baseline to week 12, n = 8, LS mean (95% CI)
[16] = 1.5–3.0–4.5 mg sc once weekly, baseline to week 12, n = 8, LS mean (95% CI)
[17] = 2.0–4.0–6.0 mg sc once weekly, baseline to week 12, n = 7, LS mean (95% CI)

## CC(C)C[C@H](NC(=O)[C@H](CC(C)C)NC(=O)[C@H](Cc1c[nH]c2ccccc12)NC(=O)[C@H](CCC(=O)O)NC(=O)[C@@H](NC(=O)[C@H](Cc1ccccc1)NC(=O)[C@H](CCC(=O)O)NC(=O)[C@H](CCCCNC(=O)COCCOCCNC(=O)COCCOCCNC(=O)CC[C@H](NC(=O)CCCCCCCCCCCCCCCCCCC(=O)O)C(=O)O)NC(=O)[C@H](C)NC(=O)[C@H](CCCCN)NC(=O)[C@H](CCCCN)NC(=O)[C@H](CCC(=O)O)NC(=O)[C@H](CC(=O)O)NC(=O)[C@H](CC(C)C)NC(=O)[C@H](Cc1ccc(O)cc1)NC(=O)[C@H](CCCCN)NC(=O)[C@H](CO)NC(=O)[C@H](Cc1ccc(O)cc1)NC(=O)[C@H](CC(=O)O)NC(=O)[C@H](CO)NC(=O)[C@@H](NC(=O)[C@H](Cc1ccccc1)NC(=O)[C@@H](NC(=O)CNC(=O)[C@H](CCC(N)=O)NC(=O)C(C)(C)NC(=O)[C@@H](N)Cc1c[nH]cn1)[C@@H](C)O)[C@@H](C)O)C(C)C)C(=O)N[C@@H](CCC(=O)O)C(=O)NCC(=O)NCC(=O)N1CCC[C@H]1C(=O)N[C@@H](CO)C(=O)N[C@@H](CO)C(=O)NCC(N)=O [IBI362]
[1]; [12]
  Cmax: 82.4 ng/mL
  AUC(0-t): 12500 ng·h/mL
[1]; 1 mg, after first sc dose, 1.0–2.0–3.0 mg regimen, n = 8, median (range), read-out: Tmax
  Tmax: 71.9 h
[1]; [13]
  Cmax: 99.6 ng/mL
  AUC(0-t): 15600 ng·h/mL
[1]; 1.5 mg, after first sc dose, 1.5–3.0–4.5 mg regimen, n = 8, median (range), read-out: Tmax
  Tmax: 84.5 h
[1]; [14]
  Cmax: 134 ng/mL
  AUC(0-t): 19200 ng·h/mL
[1]; 2 mg, after first sc dose, 2.0–4.0–6.0 mg regimen, n = 8, median (range), read-out: Tmax
  Tmax: 71.9 h
[1]; first sc doses, all cohorts, read-out: median Tmax
  Tmax: 72 h
[2]; 1.0–2.0–3.0 mg sc once weekly (3.0 mg cohort), baseline to week 12, n = 8, LS mean (95% CI)
  Body weight Percent CFB: −4.81%
[2]; [15]
  HbA1c CFB: −0.38%
  BMI CFB: −1.44 kg/m²
  Body weight CFB: -3.80 kg
  Diastolic blood pressure CFB: −8.48 mm Hg
  Fasting insulin CFB: −3.58 µU/mL
  Fasting plasma glucose CFB: -0.30 mmol/L
  LDL cholesterol CFB: -0.11 mmol/L
  Systolic blood pressure CFB: −8.26 mm Hg
  Total cholesterol CFB: -0.74 mmol/L
  Triglycerides CFB: -0.44 mmol/L
  Waist circumference CFB: −3.25 cm
[2]; 1.5–3.0–4.5 mg sc once weekly (4.5 mg cohort), baseline to week 12, n = 8, LS mean (95% CI)
  Body weight Percent CFB: −6.40%
[2]; [16]
  HbA1c CFB: −0.24%
  BMI CFB: −2.00 kg/m²
  Body weight CFB: -5.77 kg
  Diastolic blood pressure CFB: −5.76 mm Hg
  Fasting insulin CFB: −6.14 µU/mL
  Fasting plasma glucose CFB: -0.11 mmol/L
  LDL cholesterol CFB: -0.25 mmol/L
  Systolic blood pressure CFB: −5.80 mm Hg
  Total cholesterol CFB: -0.68 mmol/L
  Triglycerides CFB: -0.55 mmol/L
  Waist circumference CFB: −4.57 cm
[2]; 2.0–4.0–6.0 mg sc once weekly (6.0 mg cohort), baseline to week 12, n = 7, LS mean (95% CI)
  Body weight Percent CFB: −6.05%
[2]; [17]
  HbA1c CFB: −0.23%
  BMI CFB: −1.88 kg/m²
  Body weight CFB: -5.12 kg
  Diastolic blood pressure CFB: −2.73 mm Hg
  Fasting insulin CFB: −0.42 µU/mL
  Fasting plasma glucose CFB: -0.13 mmol/L
  LDL cholesterol CFB: -0.34 mmol/L
  Systolic blood pressure CFB: −5.59 mm Hg
  Total cholesterol CFB: -0.81 mmol/L
  Triglycerides CFB: -0.74 mmol/L
  Waist circumference CFB: −5.00 cm
[2]; all three dose cohorts (Fig. S6)
  Serum ALT and AST levels: decreased from baseline
[2]; 3.0 mg cohort (1.0-2.0-3.0 mg)
  Serum uric acid CFB: -43.67 µmol/L
[2]; 4.5 mg cohort (1.5-3.0-4.5 mg)
  Serum uric acid CFB: -83.47 µmol/L
[2]; 6.0 mg cohort (2.0-4.0-6.0 mg)
  Serum uric acid CFB: -87.48 µmol/L
[2]; week 12, all IBI362 cohorts, 10 participants, data not shown
  Participants with coincident decrease in body weight, LDL cholesterol, triglycerides, blood pressure and serum uric acid: 41.7%
[2]; week 12, all IBI362 cohorts, thirteen participants
  Participants achieving ≥5% weight loss from baseline: 54.2%
[3]; 3.0 mg cohort
  Participants who developed anti-IBI362 antibody: One
[3]; 4.5 mg cohort
  Participants who developed anti-IBI362 antibody: one
[4]
  Body weight: decreased body weight
[5]
  Body weight: decreased body weight
[6]
  Safety, glycaemic improvement and weight loss: demonstrated the safety, glycaemic improvement and weight loss
[7]
  Binding to human GLP-1 receptors: potently bound
[8]
  Binding to human glucagon receptors: potently bound
[9]
  Energy expenditure as compared with vehicle: increased energy expenditure
  Glucose control: improved glucose control
[10]
  Binding to mouse GLP-1 receptors: potently bound
[11]
  Binding to mouse glucagon receptors: potently bound
